Source: patent US7879848B2, “Dipeptidyl Peptidase-IV inhibiting compounds, method of preparing the same, and pharmaceutical compositions containing the same as an active agent” (LG Life Sciences, Ltd., priority 2005, dated 2011)

Biological target: T1, Dipeptidyl Peptidase-IV (DPP-IV) (Homo sapiens, UniProt P27487)
T1 construct: made in house
Assay: Measurement of DPP-IV Activity-Inhibiting Ability (fluorescent substrate Ac-Gly-Pro-AFC)
Type: biochemical
Conditions: 25° C., 50 mmol HEPES (pH 7.4), DP-IV 7.1 nM, enzyme reaction for 1 hour
Excerpt: Dipeptidyl Peptidase-IV (DPP-IV), known as serine protease, was obtained by a modification of the known method (Tanaka T. et al, Proc. Natl. Acad. Sci. USA, (1994) 91, 3082-3086), which comprises cloning, purification by use of Baculo-Virus and activation steps. DPP-IV was used to test the pharmaceutical efficacy of candidate inhibitors as follows. The cloned DP-IV was expressed in Baculo-Virus, which was purified by nickel column and then subjected to dialysis. The inhibitors synthesized in Examples were tested to determine the binding activity there of using a fluorescent substrate, Ac-Gly-Pro-AFC. Enzyme reactions were conducted for various concentrations of inhibitors, using 100 µM Ac-Gly-Pro-AFC at 25° C. in a buffer solution containing 50 mmol HEPES (pH 7.4), with the concentration of DP-IV being 7.1 nM. […] As the fluorescent spectrometer, Spectra MAX GeminiXS fluorescent spectrometer from Molecular Device Co. was used and the excitation frequency and emission frequency were set to 400 nm and 505 nm, respectively.

T1 sequence (P27487 whole entry): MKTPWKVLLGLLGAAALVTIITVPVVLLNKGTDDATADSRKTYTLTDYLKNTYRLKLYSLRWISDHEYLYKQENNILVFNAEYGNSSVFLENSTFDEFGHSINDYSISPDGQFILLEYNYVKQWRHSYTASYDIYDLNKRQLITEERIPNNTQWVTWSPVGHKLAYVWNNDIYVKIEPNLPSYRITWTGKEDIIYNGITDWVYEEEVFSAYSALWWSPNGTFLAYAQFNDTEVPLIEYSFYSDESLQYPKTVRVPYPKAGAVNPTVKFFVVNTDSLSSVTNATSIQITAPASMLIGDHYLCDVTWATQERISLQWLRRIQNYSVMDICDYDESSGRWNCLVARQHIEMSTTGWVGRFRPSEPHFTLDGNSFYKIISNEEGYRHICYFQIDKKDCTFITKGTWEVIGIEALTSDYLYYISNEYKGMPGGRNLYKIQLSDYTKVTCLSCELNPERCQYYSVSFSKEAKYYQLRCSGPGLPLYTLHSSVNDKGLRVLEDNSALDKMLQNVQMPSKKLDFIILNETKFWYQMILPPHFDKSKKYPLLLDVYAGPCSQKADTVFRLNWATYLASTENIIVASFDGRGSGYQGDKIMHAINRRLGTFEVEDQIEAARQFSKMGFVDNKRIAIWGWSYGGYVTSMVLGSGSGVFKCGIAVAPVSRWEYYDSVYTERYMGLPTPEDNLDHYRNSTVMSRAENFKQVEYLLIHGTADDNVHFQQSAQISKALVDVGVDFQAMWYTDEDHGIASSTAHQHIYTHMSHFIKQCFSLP

## N[C@@H](CC(=O)N1CCn2c(nnc2C(F)(F)F)C1)CN1CCOC1=O [Ex. 1, 3-[2S-amino-4-oxo-4-(3-trifluoromethyl-5,6-dihydro-8H-[1,2,4]triazolo[4,3-a]pyrazin-7-yl)-butyl]-oxazolidin-2-one]
  IC50: > 10000 nM

## N[C@@H](CC(=O)N1CCc2c(nc(CF)nc2C(F)(F)F)C1)CN1CC(F)(F)CCC1=O [Ex. 102, 1-{(2S)-2-amino-4-[2-(fluoromethyl)-4-(trifluoromethyl)-5,8-dihydropyrido[3,4-d]pyrimidin-7(6H)-yl]-4-oxobutyl}-5,5-difluoropiperidin-2-one]
  IC50: 29 nM

## COCCc1nc2c(c(C(F)(F)F)n1)CCN(C(=O)C[C@H](N)CN1C[C@H](C)CCC1=O)C2 [Ex. 52, (5R)-1-{(2S)-2-amino-4-[2-(2-methoxyethyl)-4-(trifluoromethyl)-5,8-dihydropyrido[3,4-d]pyrimidin-7(6H)-yl]-4-oxobutyl}-5-methylpiperidin-2-one]
  IC50: 18 nM

## C[C@@H]1CCC(=O)N(C[C@@H](N)CC(=O)N2CCc3c(nc(CC4CC4)nc3C(F)(F)F)C2)C1 [Ex. 54, (5R)-1-{(2S)-2-amino-4-[2-(cyclopropylmethyl)-4-(trifluoromethyl)-5,8-dihydropyrido[3,4-d]pyrimidin-7(6H)-yl]-4-oxobutyl}-5-methylpiperidin-2-one]
  IC50: 30 nM

## CC(C)c1nc2c(c(C(F)(F)F)n1)CCN(C(=O)C[C@H](N)CN1C[C@H](C)CCC1=O)C2 [Ex. 75, 1-{(2S)-2-amino-4-[2-isopropyl-4-(trifluoromethyl)-5,8-dihydropyrido[3,4-d]pyrimidin-7(6H)-yl]-4-oxobutyl}-5-methylpiperidin-2-one]
  IC50: 16 nM

## CC1CCN(C[C@@H](N)CC(=O)N2CCn3c(nnc3C(F)(F)F)C2)C(=O)C1 (stereo partly drawn) [Ex. 10, 1-[2S-amino-4-oxo-4-(3-trifluoromethyl-5,6-dihydro-8H-[1,2,4]triazolo[4,3-a]pyrazin-7-yl)-butyl]-4-methyl-piperidin-2-one]
  IC50: 141 nM

## N[C@@H](CC(=O)N1CCc2c(nc(C(F)(F)F)nc2C(F)(F)F)C1)CN1CC(C(F)(F)F)CCC1=O (stereo partly drawn) [Ex. 107, 1-{(2S)-2-amino-4-[2,4-bis(trifluoromethyl)-5,8-dihydropyrido[3,4-d]pyrimidin-7(6H)-yl]-4-oxobutyl}-5-(trifluoromethyl)piperidin-2-one]
  IC50: 636 nM

## COCCc1nc2c(c(C(F)(F)F)n1)CCN(C(=O)C[C@H](N)CN1CC(F)(F)CCC1=O)C2 [Ex. 53, 1-{(2S)-2-amino-4-[2-(2-methoxyethyl)-4-(trifluoromethyl)-5,8-dihydropyrido[3,4-d]pyrimidin-7(6H)-yl]-4-oxobutyl}-5,5-difluoropiperidin-2-one]
  IC50: 26 nM

## N[C@@H](CC(=O)N1CCc2c(nc(-c3ccc(F)c(F)c3)nc2C(F)(F)F)C1)CN1CC(F)(F)CCC1=O [Ex. 35, 1-{(2S)-2-amino-4-[2-(3,4-difluorophenyl)-4-(trifluoromethyl)-5,8-dihydropyrido[3,4-d]pyrimidin-7(6H)-yl]-4-oxobutyl}-5,5-difluoropiperidin-2-one]
  IC50: 51 nM

## C[C@@H]1CCC(=O)N(C[C@@H](N)CC(=O)N2CCc3sc(C4CCOCC4)nc3C2)C1 [Ex. 47, (5R)-1-{(2S)-2-amino-4-oxo-4-[2-(tetrahydro-2H-pyran-4-yl)-6,7-dihydro[1,3]thiazolo[4,5,c]pyridin-5(4H)-yl]butyl}-5-methylpiperidin-2-one]
  IC50: 279 nM

## N[C@@H](CC(=O)N1CCn2c(nnc2C(F)(F)F)C1)CN1CC(C(F)(F)F)CCC1=O (stereo partly drawn) [Ex. 15, 1-[2S-amino-4-oxo-4-(3-trifluoromethyl-5,6-dihydro-8H-[1,2,4]triazolo[4,3-a]pyrazin-7-yl)-butyl]-5-trifluoromethyl-piperidin-2-one]
  IC50: 2500 nM

## N[C@@H](CC(=O)N1CCc2c(noc2C(F)(F)F)C1)CN1CCCCC1=O [Ex. 19, 1-[2S-amino-4-oxo-4-(3-trifluoromethyl-4,5-dihydro-7H-isooxazolo[3,4-c]pyridin-6-yl)butyl]-piperidin-2-one]
  IC50: 712 nM

## C[C@H]1CN(C[C@@H](N)CC(=O)N2CCc3c(nc(-c4ccc(F)cc4)nc3C(F)(F)F)C2)C(=O)CO1 [Ex. 31]
  IC50: 25 nM

## N[C@@H](CC(=O)N1CCc2c(nc(C(F)(F)C(F)(F)F)nc2C(F)(F)F)C1)CN1CC(F)(F)CCC1=O [Ex. 98, 1-{(2S)-2-amino-4-oxo-4-[2-(pentafluoroethyl)-4-(trifluoromethyl)-5,8-dihydropyrido[3,4-d]pyrimidin-7(6H)-yl]butyl}-5,5-difluoropiperidin-2-one]
  IC50: 68 nM

## N[C@@H](CC(=O)N1CCc2c(C(F)(F)F)n[nH]c2C1)CN1CCCCC1=O [Ex. 20, 1-[2S-amino-4-oxo-4-(3-trifluoromethyl-1,4,5,7-tetrahydro-pyrazolo[3,4-c]pyridin-6-yl)-butyl]-piperidin-2-one]
  IC50: 268 nM

## N[C@@H](CC(=O)N1CCc2c(nc(C3CC3)nc2C(F)(F)F)C1)CN1CC(F)(F)CCC1=O [Ex. 25, 1-{(2S)-2-amino-4-[2-cyclopropyl-4-(trifluoromethyl)-5,8-dihydropyrido[3,4-d]pyrimidin-7(6H)-yl]-4-oxobutyl}-5,5-difluoropiperidin-2-one]
  IC50: 9 nM

## C[C@@H]1CCC(=O)N(C[C@@H](N)CC(=O)N2CCc3c(nc(C4CCCC4)nc3C(F)(F)F)C2)C1 [Ex. 38, (5R)-1-{(2S)-2-amino-4-[2-cyclopentyl-4-(trifluoromethyl)-5,8-dihydropyrido[3,4-d]pyrimidin-7(6H)-yl]-4-oxobutyl}-5-methylpiperidin-2-one]
  IC50: 20 nM

## C[C@H]1CN(C[C@@H](N)CC(=O)N2CCn3c(nnc3C(F)(F)C(F)(F)F)C2)C(=O)CO1 [Ex. 90, (6S)-4-{(2S)-2-amino-4-oxo-4-[3-(pentafluoroethyl)-5,6-dihydro[1,2,4]triazolo[4,3-a]pyrazin-7(8H)-yl]butyl}-6-methylmorpholine-3-one]
  IC50: 356 nM

## N[C@@H](CC(=O)N1CCc2c(nc(C(F)(F)F)nc2C(F)(F)F)C1)CN1CC(C(F)(F)F)CC1=O (stereo partly drawn) [Ex. 108, 1-{(2S)-2-amino-4-[2,4-bis(trifluoromethyl)-5,8-dihydropyrido[3,4-d]pyrimidin-7(6H)-yl]-4-oxobutyl}-4-(trifluoromethyl)pyrrolidin-2-one]
  IC50: 54 nM

## N[C@@H](CC(=O)N1CCn2c(nnc2C(F)(F)F)C1)CN1CCC(F)C1=O (stereo partly drawn) [Ex. 5, 1-[2S-amino-4-oxo-4-(3-trifluoromethyl-5,6-dihydro-8H-[1,2,4]triazolo[4,3-a]pyrazin-7-yl)-butyl]-3-fluoro-pyrrolidin-2-one]
  IC50: > 10000 nM

## CC1CN(C[C@@H](N)CC(=O)N2CCc3c(nc(C(F)(F)F)nc3C(F)(F)F)C2)C(=O)CS1 (stereo partly drawn) [Ex. 91, 4-{(2S)-2-amino-4-[2,4-bis(trifluoromethyl)-5,8-dihydropyrido[3,4-d]pyrimidin-7(6H)-yl]-4-oxobutyl}-6-methylthiomorpholin-3-one]
  IC50: 85 nM

## C[C@H]1CN(C[C@@H](N)CC(=O)N2CCc3c(nc(C4CCCC4)nc3C(F)(F)F)C2)C(=O)CO1 [Ex. 39]
  IC50: 51 nM

## CCCc1nc2c(c(C(F)(F)F)n1)CCN(C(=O)C[C@H](N)CN1C[C@H](C)CCC1=O)C2 [Ex. 99, (5R)-1-{(2S)-2-amino-4-oxo-4-[2-propyl-4-(trifluoromethyl)-5,8-dihydropyrido[3,4-d]pyrimidin-7(6H)-yl]butyl}-5-methylpiperidin-2-one]
  IC50: 19 nM

## C[C@H]1CN(C[C@@H](N)CC(=O)N2CCc3sc(C4CCOCC4)nc3C2)C(=O)CO1 [Ex. 48, (6S)-4-{(2R)-2-amino-4-oxo-4-[2-(tetrahydro-2H-pyran-4-yl)-6,7-dihydro[1,3]thiazolo[4,5,c]pyridin-5(4H)-yl]butyl}-6-methylmorpholine-3-one]
  IC50: 357 nM

## N[C@@H](CC(=O)N1CCc2c(nc(C3CCCC3)nc2C(F)(F)F)C1)CN1CC(F)(F)CCC1=O [Ex. 40, 1-{(2S)-2-amino-4-[2-cyclopentyl-4-(trifluoromethyl)-5,8-dihydropyrido[3,4-d]pyrimidin-7(6H)-yl]-4-oxobutyl}-5,5-difluoropiperidin-2-one]
  IC50: 30 nM

## C[C@H]1CN(C[C@@H](N)CC(=O)N2CCc3c(cccc3C(F)(F)F)C2)C(=O)CO1 [Ex. 29, (6S)-4-{(2S)-2-amino-4-oxo-4-[5-(trifluoromethyl)-3,4-dihydroisoquinolin-2(1H)-yl]butyl}-6-methylmorpholine-3-one]
  IC50: 175 nM

## CC1=CC(=O)N(C[C@@H](N)CC(=O)N2CCc3c(nc(-c4ccoc4)nc3C(F)(F)F)C2)C1 [Ex. 104, 1-{(2S)-2-amino-4-[2-(3-furyl)-4-(trifluoromethyl)-5,8-dihydropyrido[3,4-d]pyrimidin-7(6H)-yl]-4-oxobutyl}-4-methyl-1,5-dihydro-2H-pyrrol-2-one]
  IC50: 110 nM

## CCc1nc2c(c(C(F)(F)F)n1)CCN(C(=O)C[C@H](N)CN1C[C@H](C)OCC1=O)C2 [Ex. 73, (6S)-4-{(2S)-2-amino-4-[2-ethyl-4-(trifluoromethyl)-5,8-dihydropyrido[3,4-d]pyrimidin-7(6H)-yl]-4-oxobutyl}-6-methylmorpholine-3-one]
  IC50: 27 nM

## C[C@H]1CN(C[C@@H](N)CC(=O)N2CCc3sc(C(F)(F)F)nc3C2)C(=O)CO1 [Ex. 50, (6S)-4-{(2S)-2-amino-4-oxo-4-[2-(trifluoromethyl)-6,7-dihydro[1,3]thiazolo[4,5,c]pyridin-5(4H)-yl]butyl}-6-methylmorpholine-3-one]
  IC50: 422 nM
